Results reported in article PMC12649549, “Sequence Permutation Generated Lysine and Tryptophan-Rich Antimicrobial Peptides with Enhanced Therapeutic Index” (Antibiotics, 2025).
Where two headings read alike, the source gives them in different places.

Legend:
Gram-positive bacteria = assay: Geometric mean MIC and therapeutic index, Gram-positive bacteria; assay type: cell-based; details: Gram-positive bacteria
Experimental: (§1) In this study, we aimed to investigate the potential of W5K series peptides for therapeutic use. To evaluate their efficacy for antibacterial therapy, we used the Therapeutic Index (TI) as a measure of their cell selectivity. The TI was calculated as the ratio of the concentration causing 10% hemolysis of human red blood cells (HC10) to the geometric mean minimum inhibitory concentration (GM) of the peptides against both Gram-negative and Gram-positive bacteria. This parameter was used to quantitatively assess the balance between antibacterial potency and cytotoxicity among the W5K derivatives.
(§2) The antibacterial activities of the peptides in Müller-Hinton (MH) broth and modified LYM broth were determined using the standard broth microdilution method as per Clinical and Laboratory Standards Institute (CLSI) guidelines. The LYM broth was prepared with specific components and adjusted to different conditions, including varying concentrations of NaCl and MgCl2, and different pH levels. To prepare the LYM broth, 5.4 mM KCl, 5.6 mM Na2HPO4, 0.5 mM MgSO4, and 1.0 mM sodium citrate were added. Additionally, 0.4 mg of ZnCl2, 2.0 mg of FeCl3·6H2O, 0.1 mg of CuSO4·5H2O, 0.1 mg of MnSO4·H2O, 0.1 mg of Na2B4O7∙10H2O, 700 mg of amino acid mixtures without tryptophan (Takara Bio Inc., San Jose, CA, USA), and 20 mg of L-tryptophan were added per liter of medium. The pH was adjusted to 7.4, and a vitamin mixture (100X, Sigma) and glucose concentration of 2% were added. For different conditions of LYM broth, NaCl concentrations of 300, 200, 150, and 50 mM, MgCl2 concentrations of 2.5, 1.5, and 0.5 mM, and pH levels of 6.5, 5.5, and 4.5 were adjusted. Bacterial strains were incubated in MH broth overnight, regrown, and diluted to a final concentration of 5 × 10^5 CFU/mL. Peptides were added to each well at final concentrations of 50, 25, 12.5, 6.25, 3.13, 1.56, and 0.78 µg/mL, and 99 µL of diluted microbes was loaded into each well of a polypropylene 96-well plate. […] The Morpheus HeatMap software (https://software.broadinstitute.org/morpheus/) was used to display MIC values on a color scale. All experiments were independently repeated three times.

S. aureus ATCC 25923 = tested on: S. aureus ATCC 25923
Outline: (§3)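 Salt and pH tolerance was assessed by determining MICs in LYM medium containing 50–300 mM NaCl, 0.5–2.5 mM MgCl2, or at pH 4.5–6.5, alongside MH broth. The inoculum was 5 × 10^5 CFU/mL.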

[1] = tested on: A. baumannii 14B0097 (Acinetobacter sp., BCRC number 14B0097)
Outline: as §3

[2] = tested on: Escherichia coli (ATCC 25922)
Outline: as §3

S. aureus ATCC 33591 = tested on: S. aureus ATCC 33591
Outline: as §3

[3] = tested on: A. baumannii 14B0091 (Acinetobacter sp., BCRC number 14B0091)
Outline: as §3

S. aureus ATCC 33593 = tested on: S. aureus ATCC 33593
Outline: as §3

[4] = tested on: Both Gram-positive and -negative bacteria; assay: Geometric mean MIC, therapeutic index and fold changes of MIC, whole panel of strains; assay type: cell-based
Experimental: as §1, §2

[5] = LYM broth, 0 mM NaCl, 16 h, 37 °C
[6] = LYM broth, 50 mM NaCl, 16 h, 37 °C
[7] = LYM broth, 100 mM NaCl, 16 h, 37 °C
[8] = LYM broth, 200 mM (NaCl), 16 h, 37 °C
[9] = LYM broth, 300 mM (NaCl), 16 h, 37 °C
[10] = MH broth, 5 × 10^5 CFU/mL, 16 h, 37 °C, repeated three times

## Ac-WRKWLKWLAKKKK-NH2 [Peptide W5K02]
Gram-positive bacteria; MH broth, MIC >50 µg/mL counted as 100 µg/mL
  GM G+ (geometric mean of the MIC values): 21.8 µg/mL
Gram-positive bacteria; HC10/GM
  Therapeutic Index (TI) G+: 0.8
S. aureus ATCC 25923; [5]
  MIC: 6.25 µg/mL
S. aureus ATCC 25923; LYM broth, 0.5 mM MgCl2
  MIC: 6.25 µg/mL
S. aureus ATCC 25923; LYM broth, 1.5 mM MgCl2
  MIC: 6.25 µg/mL
S. aureus ATCC 25923; LYM broth, 2.5 mM MgCl2
  MIC: 6.25 µg/mL
S. aureus ATCC 25923; [6]
  MIC: 6.25 µg/mL
S. aureus ATCC 25923; [7]
  MIC: 12.5 µg/mL
S. aureus ATCC 25923; [8]
  MIC: 50 µg/mL
S. aureus ATCC 25923; [9]
  MIC: >50 µg/mL
S. aureus ATCC 25923; LYM broth, pH 4.5
  MIC: 3.13 µg/mL
S. aureus ATCC 25923; LYM broth, pH 5.5
  MIC: 3.13 µg/mL
S. aureus ATCC 25923; LYM broth, pH 6.5
  MIC: 3.13 µg/mL
S. aureus ATCC 25923; [10]
  MIC: 25 µg/mL
[1]; [5]
  MIC: 1.56 µg/mL
[1]; LYM broth, 0.5 mM MgCl2
  MIC: 1.56 µg/mL
[1]; LYM broth, 1.5 mM MgCl2
  MIC: 3.13 µg/mL
[1]; LYM broth, 2.5 mM MgCl2
  MIC: 3.13 µg/mL
[1]; [6]
  MIC: 1.56 µg/mL
[1]; [7]
  MIC: 1.56 µg/mL
[1]; [8]
  MIC: 3.13 µg/mL
[1]; [9]
  MIC: 6.25 µg/mL
[1]; LYM broth, pH 4.5
  MIC: 3.13 µg/mL
[1]; LYM broth, pH 5.5
  MIC: 3.13 µg/mL
[1]; LYM broth, pH 6.5
  MIC: 3.13 µg/mL
[1]; [10]
  MIC: 3.13 µg/mL
[2]; [5]
  MIC: 6.25 µg/mL
[2]; LYM broth, 0.5 mM MgCl2
  MIC: 6.25 µg/mL
[2]; LYM broth, 1.5 mM MgCl2
  MIC: 12.5 µg/mL
[2]; LYM broth, 2.5 mM MgCl2
  MIC: 12.5 µg/mL
[2]; [6]
  MIC: 12.5 µg/mL
[2]; [7]
  MIC: 25 µg/mL
[2]; [8]
  MIC: >50 µg/mL
[2]; [9]
  MIC: >50 µg/mL
[2]; LYM broth, pH 4.5
  MIC: 3.13 µg/mL
[2]; LYM broth, pH 5.5
  MIC: 3.13 µg/mL
[2]; LYM broth, pH 6.5
  MIC: 3.13 µg/mL
[2]; [10]
  MIC: 12.5 µg/mL
S. aureus ATCC 33591; [5]
  MIC: 6.25 µg/mL
S. aureus ATCC 33591; LYM broth, 0.5 mM MgCl2
  MIC: 6.25 µg/mL
S. aureus ATCC 33591; LYM broth, 1.5 mM MgCl2
  MIC: 6.25 µg/mL
S. aureus ATCC 33591; LYM broth, 2.5 mM MgCl2
  MIC: 6.25 µg/mL
S. aureus ATCC 33591; [6]
  MIC: 6.25 µg/mL
S. aureus ATCC 33591; [7]
  MIC: 12.5 µg/mL
S. aureus ATCC 33591; [8]
  MIC: 50 µg/mL
S. aureus ATCC 33591; [9]
  MIC: 50 µg/mL
S. aureus ATCC 33591; LYM broth, pH 4.5
  MIC: 6.25 µg/mL
S. aureus ATCC 33591; LYM broth, pH 5.5
  MIC: 6.25 µg/mL
S. aureus ATCC 33591; LYM broth, pH 6.5
  MIC: 6.25 µg/mL
S. aureus ATCC 33591; [10]
  MIC: 25 µg/mL
[3]; [5]
  MIC: 1.56 µg/mL
[3]; LYM broth, 0.5 mM MgCl2
  MIC: 1.56 µg/mL
[3]; LYM broth, 1.5 mM MgCl2
  MIC: 1.56 µg/mL
[3]; LYM broth, 2.5 mM MgCl2
  MIC: 1.56 µg/mL
[3]; [6]
  MIC: 1.56 µg/mL
[3]; [7]
  MIC: 1.56 µg/mL
[3]; [8]
  MIC: 3.13 µg/mL
[3]; [9]
  MIC: 6.25 µg/mL
[3]; LYM broth, pH 4.5
  MIC: 1.56 µg/mL
[3]; LYM broth, pH 5.5
  MIC: 1.56 µg/mL
[3]; LYM broth, pH 6.5
  MIC: 1.56 µg/mL
[3]; [10]
  MIC: 3.13 µg/mL
S. aureus ATCC 33593; [5]
  MIC: 6.25 µg/mL
S. aureus ATCC 33593; LYM broth, 0.5 mM MgCl2
  MIC: 6.25 µg/mL
S. aureus ATCC 33593; LYM broth, 1.5 mM MgCl2
  MIC: 6.25 µg/mL
S. aureus ATCC 33593; LYM broth, 2.5 mM MgCl2
  MIC: 6.25 µg/mL
S. aureus ATCC 33593; [6]
  MIC: 6.25 µg/mL
S. aureus ATCC 33593; [7]
  MIC: 12.5 µg/mL
S. aureus ATCC 33593; [8]
  MIC: 50 µg/mL
S. aureus ATCC 33593; [9]
  MIC: >50 µg/mL
S. aureus ATCC 33593; LYM broth, pH 4.5
  MIC: 6.25 µg/mL
S. aureus ATCC 33593; LYM broth, pH 5.5
  MIC: 6.25 µg/mL
S. aureus ATCC 33593; LYM broth, pH 6.5
  MIC: 3.13 µg/mL
S. aureus ATCC 33593; [10]
  MIC: 25 µg/mL
[4]; Both Gram-positive and -negative bacteria, MH broth, MIC >50 µg/mL counted as 100 µg/mL
  GM G−/+ (geometric mean of the MIC values): 12.5 µg/mL
[4]; HC10/GM, both Gram-positive and -negative bacteria
  Therapeutic Index (TI) G−/+: 1.3
[4]; LYM broth, 2.5 mM MgCl2
  weakening of bactericidal efficacy (MIC): 4 fold
[4]; MH broth, in most bacteria strains
  folds higher MIC values than W5KA9W: 2–8 fold
